Experimental data taken from PMC6218569, “Structural and Functional Characterization of PA14/Flo5-Like Adhesins From Komagataella pastoris” (Frontiers in Microbiology, 2018).
Values belong to the compound of their own block, whether it stands above or below them.

Legend:
Cea1A (=KpFlo1A) [1] = target: T1, Cea1A (=KpFlo1A) (Komagataella pastoris, UniProt A0A1B2J5V1); assay: ITC and co-crystal structure ([…] Å); type: binding; details: read-out: Cea1A•N,N′-diacetylchitobiose
T1 construct: gene ATY40_BA7500007; A domain, D78-E296, N-terminally His6-tagged
T1 sequence (A0A1B2J5V1 entry or part of it): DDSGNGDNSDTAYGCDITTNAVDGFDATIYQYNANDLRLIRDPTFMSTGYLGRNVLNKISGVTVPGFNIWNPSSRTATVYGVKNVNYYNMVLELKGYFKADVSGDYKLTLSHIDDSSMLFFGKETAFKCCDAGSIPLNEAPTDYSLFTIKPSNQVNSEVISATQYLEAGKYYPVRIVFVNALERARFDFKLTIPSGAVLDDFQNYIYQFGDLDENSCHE

Cea1A (=KpFlo1A) [2] = target: T1, Cea1A (=KpFlo1A); assay: weak binding KD (Supplementary Figure S6), validated by fluorescence titration
Cea1A (=KpFlo1A) [3] = target: T1, Cea1A (=KpFlo1A); assay: ITC and co-crystal structure ([…] Å); type: binding

Kd (Cea1A (=KpFlo1A) [1]): 13.1 ± 3.56 µM
Compound: CC(=O)N[C@H]1[C@H](O[C@H]2[C@H](O)[C@@H](NC(C)=O)C(O)O[C@@H]2CO)O[C@H](CO)[C@@H](O)[C@@H]1O (stereo partly drawn) [N,N′-diacetylchitobiose]

Kd (Cea1A (=KpFlo1A) [2]): 2380 µM
Compound: OC[C@H]1OC(O)[C@H](O)[C@@H](O)[C@@H]1O (stereo partly drawn) [glucose]

Compound: CC(=O)N[C@@H]1[C@@H](O)[C@H](O)[C@@H](CO)O[C@H]1O [GlcNAc]
Kd (Cea1A (=KpFlo1A) [3]): 7.67 ± 0.49 µM
